Data published in ChEMBL document CHEMBL5356986, “Research status of indole-modified natural products” (RSC Med Chem, 2023).
Values belong to the compound of their own block, whether it stands above or below them.

How the values were obtained:
HeLa [1] = test: Antiproliferative activity against human HeLa cells assessed as inhibition of cell growth incubated for 72 hrs by MTT assay; assay type: functional, cell-based
MCF7 [2] = test: Antiproliferative activity against human MCF7 cells assessed as inhibition of cell growth after overnight incubation by MTT assay; assay type: functional, cell-based
HT-29 = test: Antiproliferative activity against human HT-29 cells assessed as inhibition of cell proliferation by MTT assay; assay type: functional, cell-based
Alpha glucosidase = Alpha glucosidase (Homo sapiens, UniProt O43451+P10253+P14410+Q2M2H8); test: Inhibition of alpha glucosidase (unknown origin) measured after 60 mins; assay type: protein assay
RPMI-8226 = test: Growth inhibition of human RPMI-8226 cells; assay type: functional
CCRF-CEM = test: Growth inhibition of human CCRF-CEM cells; assay type: functional
HeLa [3] = test: Antiproliferative activity against human HeLa cells assessed as reduction in cell growth; assay type: functional, cell-based
[4] = tested on: Human immunodeficiency virus 1; test: Antiviral activity against HIV-1 harboring integrase L74M mutant; assay type: functional, organism-based
HeLa [5] = test: Cytotoxicity against human HeLa cells assessed as reduction in cell viability; assay type: functional, cell-based
Bel-7402 = test: Cytotoxicity against human Bel-7402 cells assessed as reduction in cell viability measured after 72 hrs by MTT assay; assay type: functional, cell-based; conditions: Bel-7402, 72 h
H4 = test: Antiproliferative activity against human H4 cells assessed as cell growth inhibition; assay type: functional, cell-based
HepG2 = test: Cytotoxicity against human HepG2 cells assessed as reduction in cell viability measured after 48 hrs by MTT colorimetric based assay; assay type: functional; conditions: HepG2, 48 h
SGC-7901 = test: Cytotoxicity against human SGC-7901 cells assessed as reduction in cell viability measured after 48 hrs by MTT colorimetric assay; assay type: functional, cell-based; conditions: SGC-7901, 48 h
K562 = test: Antiproliferative activity against human K562 cells assessed as cell growth inhibition by MTT assay; assay type: functional, cell-based
MCF7 [6] = test: Cytotoxicity against human MCF7 cells assessed as reduction in cell growth; assay type: functional, cell-based
SW480 = test: Cytotoxicity against human SW480 cells assessed as cell growth inhibition; assay type: functional, cell-based
SMMC-7721 = test: Cytotoxicity against human SMMC-7721 cells assessed as reduction in cell viability incubated for 48 hrs by MTT assay; assay type: functional, cell-based; conditions: SMMC-7721, 48 h
[7] = Cytotoxicity against human A549 cells assessed as cell growth inhibition measured after 24 hrs by MTT assay; assay type: functional, cell-based
HL-60 = test: Cytotoxicity against human HL-60 cells assessed as reduction in cell viability incubated for 48 hrs by MTT assay; assay type: functional, cell-based; conditions: HL-60, 48 h
[8] = Antioxidant activity assessed as DPPH radical scavenging activity measured after 30 mins; assay type: functional
A549 = test: Antiproliferative activity against human A549 cells assessed as reduction in cell viability incubated for 48 hrs by MTT assay; assay type: functional, cell-based; conditions: A549, 48 h
HCT-116 = test: Cytotoxicity against human HCT-116 cells assessed as reduction in cell viability by MTS assay; assay type: functional, cell-based
MCF7 [9] = test: Cytotoxicity against human MCF7 cells assessed as reduction in cell viability by MTS assay; assay type: functional, cell-based

IC50 (HeLa [1]): 2000 nM | IC50 (MCF7 [2]): 1100 nM | IC50 (HT-29): 7300 nM
SMILES: COC(=O)c1[nH]c2ccccc2c1/C=C/C(=O)c1cc(OC)c(OC)c(OC)c1

IC50 (HeLa [1]): 2100 nM | IC50 (MCF7 [2]): 1800 nM | IC50 (HT-29): 440 nM
SMILES: CCOC(=O)c1[nH]c2ccccc2c1/C=C/C(=O)c1cc(OC)c(OC)c(OC)c1

SMILES: C=C(C)[C@@H]1CC[C@]2(C(=O)O)CC[C@]3(C)[C@H](CC[C@@H]4[C@@]5(C)Cc6c([nH]c7ccccc67)C(C)(C)[C@@H]5CC[C@]43C)[C@@H]12
IC50 (Alpha glucosidase): 40 nM

GI50 (RPMI-8226): 260 nM | GI50 (CCRF-CEM): 280 nM
SMILES: C=C1C(=O)O[C@H]2[C@H]1CC1C(COC(=O)c3cc4ccccc4[nH]3)=CCC[C@@]3(C)O[C@@]123 (some centres undefined)

SMILES: COc1cc([C@@H]2c3cc4c(cc3[C@H](NC(=O)C(=O)c3c[nH]c5ccc(C(=O)NC(C)C)cc35)[C@H]3COC(=O)[C@H]23)OCO4)cc(OC)c1OC
IC50 (HeLa [3]): 3920 nM

GI50 (RPMI-8226): 8200 nM | GI50 (CCRF-CEM): 9160 nM
SMILES: C=C1C(=O)O[C@@H]2C3O[C@]3(C)CC/C=C(\C)CC[C@@H]12 (some centres undefined)

SMILES: C=C(C)[C@@H]1CC[C@]2(C(=O)O)CC[C@]3(C)[C@H](CC[C@@H]4[C@@]5(C)CC[C@H](OC(=O)CC(C)(C)C(=O)O)C(C)(C)[C@@H]5CC[C@]43C)[C@@H]12 [BEVIRIMAT]
IC50 [4]: 65 nM

SMILES: COc1ccc(/C=C\c2cc(OC)c(OC)c(OC)c2)cc1O [COMBRETASTATIN A4]
IC50 (HeLa [5]): 210 nM

SMILES: COC(=O)[C@]1(C)CC[C@]2(C)CC[C@]3(C)C4=CC(c5cn(C)c6cc(Cl)ccc56)=C5C(=CC(OC)C(OC)=C5C)[C@]4(C)CC[C@@]3(C)[C@@H]2C1 (some centres undefined)
IC50 (Bel-7402): 10 nM | IC50 (H4): 2030 nM

SMILES: C[C@H]1[C@H](C)CC[C@]2(C(=O)O)CC[C@]3(C)C(=CC[C@@H]4[C@@]5(C)CC[C@H](O)C(C)(C)[C@@H]5CC[C@]43C)[C@H]12 [URSOLIC ACID]
IC50 (HepG2): > 20000 nM | IC50 (SGC-7901): > 20000 nM

IC50 (K562): 400 nM | IC50 (HeLa [3]): 150 nM
SMILES: COc1cc([C@@H]2c3cc4c(cc3[C@H](NC(=O)C(=O)c3cn(Cc5ccccc5Cl)c5ccc(F)cc35)[C@H]3COC(=O)[C@H]23)OCO4)cc(OC)c1OC

IC50 (HeLa [3]): 100 nM
SMILES: COc1cc([C@@H]2c3cc4c(cc3[C@H](NCc3c[nH]c5ccccc35)[C@H]3COC(=O)[C@H]23)OCO4)cc(OC)c1OC

SMILES: COC(=O)C1=CO[C@@H](OC)[C@@H]2C(C(NCCc3c[nH]c4ccc(OC)cc34)NCCc3c[nH]c4ccc(OC)cc34)=CC[C@H]12
IC50 (MCF7 [6]): 580 nM | IC50 (SW480): 890 nM | IC50 (SMMC-7721): 690 nM | IC50 [7]: 1180 nM | IC50 (HL-60): 430 nM

IC50 (K562): 100 nM
SMILES: COc1cc([C@@H]2c3cc4c(cc3[C@H](OC(=O)c3ccc5cc[nH]c5c3)[C@H]3COC(=O)[C@H]23)OCO4)cc(OC)c1OC

GI50 (RPMI-8226): 30 nM | GI50 (CCRF-CEM): 70 nM
SMILES: C=C1C(=O)O[C@H]2[C@H]1CC1C(COC(=O)/C=C/c3c[nH]c4ccccc34)=CCC[C@@]3(C)O[C@@]123 (some centres undefined)

EC50 [8]: 8100 nM
SMILES: O=C(/C=C/c1ccc(O)c(O)c1)NCCc1c[nH]c2ccc(O)cc12 [N-CAFFEOYLSEROTONIN]

SMILES: COC(=O)C1=CO[C@@H](OC)[C@@H]2C(C(NCCc3c[nH]c4ccccc34)NCCc3c[nH]c4ccccc34)=CC[C@H]12
IC50 (MCF7 [6]): 3100 nM | IC50 (SW480): 2530 nM | IC50 (SMMC-7721): 3520 nM | IC50 [7]: 3640 nM | IC50 (HL-60): 900 nM

SMILES: COc1cc([C@@H]2c3cc4c(cc3[C@H](NC(=O)c3cc5c([nH]c6ccccc65)c(-c5ccc(F)c(F)c5)n3)[C@H]3COC(=O)[C@H]23)OCO4)cc(OC)c1OC
IC50 (A549): 2240 nM

SMILES: COC(=O)[C@]1(C)CC[C@]2(C)CC[C@]3(C)C4=CC(c5c[nH]c6cc(C)ccc56)=C5C(=CC(OC)C(OC)=C5C)[C@]4(C)CC[C@@]3(C)[C@@H]2C1 (some centres undefined)
IC50 (Bel-7402): 20 nM

SMILES: C=C1CC[C@H]2[C@@](C)(Cc3c([nH]c4ccccc34)[C@@]2(C)COC(C)=O)[C@@H]1C/C=C1\C=COC1=O
IC50 (HCT-116): 1220 nM | IC50 (MCF7 [9]): 1850 nM
